Reference: ChEMBL document CHEMBL5154787 (J Med Chem, 2022)

Legend:
[1] = target: T1, AP2-associated protein kinase 1 (Homo sapiens, UniProt Q2M2I8); experiment: Inhibition of bacterially expressed GST-Xa-tagged human AAK1 using 5-FAM-labelled Aha-KEEQSQITSQVTGQIGWR-NH2 peptide as substrate incubated for 3 hrs in presence of ATP by electrophoretic analysis
[2] = target: AP2-associated protein kinase 1 (Mus musculus, UniProt Q3UHJ0); experiment: Displacement of 3H-LP-927443 from AAK1 in C57BL6 mouse brain homogenate assessed as inhibition constant incubated for 1 hr by liquid scintillation counter analysis; assay type: tissue-based
[3] = Metabolic stability in human liver microsomes assessed as parent compound remaining at 0.5 uM incubated for 10 mins in presence of NADPH by LC-MS/MS analysis; assay type: ADME, Microsome; details: read-out: Stability
[4] = Metabolic stability in rat liver microsomes assessed as parent compound remaining at 0.5 uM incubated for 10 mins in presence of NADPH by LC-MS/MS analysis; assay type: ADME, Microsome; details: read-out: Stability
[5] = Metabolic stability in mouse liver microsomes assessed as parent compound remaining at 0.5 uM incubated for 10 mins in presence of NADPH by LC-MS/MS analysis; assay type: ADME, Microsome; details: liver microsomes, read-out: Stability
Cytochrome P450 3A4 = Cytochrome P450 3A4 (Homo sapiens, UniProt P08684); experiment: Inhibition of CYP3A4 (unknown origin) incubated for 10 mins in presence of NADPH by LC-MS/MS analysis; assay type: ADME
[6] = target: MAP kinase-interacting serine/threonine-protein kinase 2 (Homo sapiens, UniProt Q9HBH9); experiment: Inhibition of MNK2 (unknown origin)
[7] = target: Rho-associated protein kinase 2 (Homo sapiens, UniProt O75116); experiment: Inhibition of ROCK2 (unknown origin)
[8] = target: Dual specificity protein kinase CLK1 (Homo sapiens, UniProt P49759); experiment: Inhibition of CLK1 (unknown origin)
[9] = target: Dual specificity protein kinase CLK4 (Homo sapiens, UniProt Q9HAZ1); experiment: Inhibition of CLK4 (unknown origin)
[10] = Cardiotoxicity in aortic ring (unknown origin) assessed as relaxation of phenylephrine induced aortic ring contraction at 10 uM incubated for 1 hr; assay type: toxicity, tissue-based, Aorta; set-up: scale not given: the % may be the effect or the level left; details: human
[11] = target: T1, AP2-associated protein kinase 1; experiment: Inhibition of full length human AAK1 expressed in HEK293F cells assessed as suppression of AP2 phosphorylation measured after 3 hrs by Western blot analysis based cellular assay; assay type: cell-based
[12] = target: BMP-2-inducible protein kinase (Homo sapiens, UniProt Q9NSY1); experiment: Inhibition of BIKE (unknown origin)
[13] = target: T2, Homeodomain-interacting protein kinase 4 (Homo sapiens, UniProt Q8NE63); experiment: Inhibition of HIPK4 (unknown origin)
T2 sequence (Q8NE63 whole entry): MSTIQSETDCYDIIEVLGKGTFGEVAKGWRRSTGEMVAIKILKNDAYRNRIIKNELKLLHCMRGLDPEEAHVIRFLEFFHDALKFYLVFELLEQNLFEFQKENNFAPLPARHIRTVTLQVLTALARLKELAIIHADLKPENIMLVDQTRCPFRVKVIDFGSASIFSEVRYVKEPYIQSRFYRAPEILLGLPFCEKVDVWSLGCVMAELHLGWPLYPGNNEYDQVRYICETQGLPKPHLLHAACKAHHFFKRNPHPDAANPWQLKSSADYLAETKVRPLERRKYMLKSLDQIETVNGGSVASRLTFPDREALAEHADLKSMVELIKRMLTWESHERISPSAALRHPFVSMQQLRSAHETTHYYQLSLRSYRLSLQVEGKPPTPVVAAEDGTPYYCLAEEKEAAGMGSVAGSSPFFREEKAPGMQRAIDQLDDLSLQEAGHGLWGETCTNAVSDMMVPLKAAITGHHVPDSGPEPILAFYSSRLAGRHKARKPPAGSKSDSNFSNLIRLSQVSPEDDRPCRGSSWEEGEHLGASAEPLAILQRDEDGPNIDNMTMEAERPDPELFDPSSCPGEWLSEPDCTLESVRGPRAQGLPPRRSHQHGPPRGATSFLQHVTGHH

[14] = target: T3, Dual specificity mitogen-activated protein kinase kinase 1 (Homo sapiens, UniProt Q02750); experiment: Inhibition of MEK1 (unknown origin)
[15] = target: T3, Dual specificity mitogen-activated protein kinase kinase 1; experiment: Inhibition of MAP2K1 (unknown origin)
[16] = target: T4, Cyclin-G-associated kinase (Homo sapiens, UniProt O14976); experiment: Inhibition of GAK (unknown origin)
T4 sequence (O14976 whole entry): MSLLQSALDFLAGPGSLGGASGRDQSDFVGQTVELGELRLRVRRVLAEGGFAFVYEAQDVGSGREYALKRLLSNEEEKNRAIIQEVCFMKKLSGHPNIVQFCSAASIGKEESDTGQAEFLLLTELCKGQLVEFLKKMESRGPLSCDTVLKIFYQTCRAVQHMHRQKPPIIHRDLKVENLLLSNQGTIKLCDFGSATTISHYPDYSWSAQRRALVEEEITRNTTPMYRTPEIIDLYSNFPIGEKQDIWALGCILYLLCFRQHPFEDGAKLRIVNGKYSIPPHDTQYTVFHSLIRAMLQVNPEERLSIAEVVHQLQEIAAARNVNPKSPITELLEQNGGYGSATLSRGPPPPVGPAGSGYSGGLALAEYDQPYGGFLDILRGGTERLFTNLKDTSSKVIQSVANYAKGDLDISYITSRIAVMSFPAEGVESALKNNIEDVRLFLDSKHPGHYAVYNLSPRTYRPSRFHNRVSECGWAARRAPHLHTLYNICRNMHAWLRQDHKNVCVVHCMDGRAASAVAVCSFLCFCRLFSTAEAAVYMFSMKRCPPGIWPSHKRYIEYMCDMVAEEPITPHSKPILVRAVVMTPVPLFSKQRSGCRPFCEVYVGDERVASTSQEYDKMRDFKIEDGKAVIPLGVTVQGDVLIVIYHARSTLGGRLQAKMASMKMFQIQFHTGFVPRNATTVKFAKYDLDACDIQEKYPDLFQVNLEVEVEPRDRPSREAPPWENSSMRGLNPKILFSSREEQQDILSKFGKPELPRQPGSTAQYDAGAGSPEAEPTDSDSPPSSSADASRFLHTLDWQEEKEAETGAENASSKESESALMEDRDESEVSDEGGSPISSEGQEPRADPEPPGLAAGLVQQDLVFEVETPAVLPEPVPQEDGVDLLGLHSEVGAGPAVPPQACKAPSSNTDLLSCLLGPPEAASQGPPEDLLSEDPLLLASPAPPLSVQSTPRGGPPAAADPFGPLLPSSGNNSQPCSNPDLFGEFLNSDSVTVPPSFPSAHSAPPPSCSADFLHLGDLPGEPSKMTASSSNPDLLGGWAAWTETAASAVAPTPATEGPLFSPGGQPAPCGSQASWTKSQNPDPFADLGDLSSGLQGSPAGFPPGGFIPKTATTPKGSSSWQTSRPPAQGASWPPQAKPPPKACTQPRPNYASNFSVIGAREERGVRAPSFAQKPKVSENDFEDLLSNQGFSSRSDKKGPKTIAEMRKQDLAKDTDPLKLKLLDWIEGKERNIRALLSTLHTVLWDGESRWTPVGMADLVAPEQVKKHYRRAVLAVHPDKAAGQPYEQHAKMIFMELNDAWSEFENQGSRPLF

[17] = target: MAP kinase-interacting serine/threonine-protein kinase 1 (Homo sapiens, UniProt Q9BUB5); experiment: Inhibition of MNK1 (unknown origin)
[18] = target: Myosin light chain kinase 2, skeletal/cardiac muscle (Homo sapiens, UniProt Q9H1R3); experiment: Inhibition of MYLK2 (unknown origin)
[19] = target: Citron Rho-interacting kinase (Homo sapiens, UniProt O14578); experiment: Inhibition of CRIK (unknown origin)
[20] = target: TRAF2 and NCK-interacting protein kinase (Homo sapiens, UniProt Q9UKE5); experiment: Inhibition of TNIK (unknown origin)

Cytochrome P450 3A4, sequence (P08684 whole entry): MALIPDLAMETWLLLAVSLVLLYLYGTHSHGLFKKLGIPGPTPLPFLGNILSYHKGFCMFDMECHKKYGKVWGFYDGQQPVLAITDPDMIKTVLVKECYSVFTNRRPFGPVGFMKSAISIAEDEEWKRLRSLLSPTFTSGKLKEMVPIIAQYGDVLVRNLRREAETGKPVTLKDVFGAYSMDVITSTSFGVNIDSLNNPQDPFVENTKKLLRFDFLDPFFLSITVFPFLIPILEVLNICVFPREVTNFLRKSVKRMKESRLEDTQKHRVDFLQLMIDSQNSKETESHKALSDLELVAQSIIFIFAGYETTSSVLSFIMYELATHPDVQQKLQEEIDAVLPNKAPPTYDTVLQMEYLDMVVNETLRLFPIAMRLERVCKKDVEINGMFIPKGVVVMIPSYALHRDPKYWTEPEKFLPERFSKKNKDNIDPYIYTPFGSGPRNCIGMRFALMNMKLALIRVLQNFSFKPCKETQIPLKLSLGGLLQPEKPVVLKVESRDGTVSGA
T1 sequence (Q2M2I8 whole entry): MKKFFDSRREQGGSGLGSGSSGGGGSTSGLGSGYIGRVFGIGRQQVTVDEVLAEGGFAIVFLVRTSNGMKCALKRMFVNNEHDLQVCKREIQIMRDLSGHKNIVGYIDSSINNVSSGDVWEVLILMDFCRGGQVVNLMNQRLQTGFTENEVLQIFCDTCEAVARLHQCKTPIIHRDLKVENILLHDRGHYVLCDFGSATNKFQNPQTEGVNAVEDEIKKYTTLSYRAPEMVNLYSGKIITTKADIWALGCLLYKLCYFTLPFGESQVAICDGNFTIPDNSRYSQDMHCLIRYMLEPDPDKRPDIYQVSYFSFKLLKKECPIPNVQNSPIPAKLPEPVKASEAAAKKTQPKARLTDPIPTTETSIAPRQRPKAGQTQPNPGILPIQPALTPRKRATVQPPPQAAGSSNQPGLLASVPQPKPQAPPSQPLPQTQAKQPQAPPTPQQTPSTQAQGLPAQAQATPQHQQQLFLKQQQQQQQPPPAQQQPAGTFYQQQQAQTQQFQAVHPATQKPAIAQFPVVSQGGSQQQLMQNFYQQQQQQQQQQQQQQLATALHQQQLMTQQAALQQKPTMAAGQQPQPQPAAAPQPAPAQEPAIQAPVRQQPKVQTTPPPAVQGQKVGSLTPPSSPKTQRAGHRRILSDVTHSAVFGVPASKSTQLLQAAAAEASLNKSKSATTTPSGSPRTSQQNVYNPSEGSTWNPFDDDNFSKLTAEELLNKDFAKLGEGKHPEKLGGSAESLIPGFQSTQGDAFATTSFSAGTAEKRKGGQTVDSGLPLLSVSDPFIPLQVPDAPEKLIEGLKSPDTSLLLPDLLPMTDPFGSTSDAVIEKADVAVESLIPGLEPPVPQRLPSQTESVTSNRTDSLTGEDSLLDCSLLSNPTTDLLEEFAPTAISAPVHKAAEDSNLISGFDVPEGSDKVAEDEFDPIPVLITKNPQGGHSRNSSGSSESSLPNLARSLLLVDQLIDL
AP2-associated protein kinase 1 (Mus musculus, UniProt Q3UHJ0), sequence (Q3UHJ0 whole entry): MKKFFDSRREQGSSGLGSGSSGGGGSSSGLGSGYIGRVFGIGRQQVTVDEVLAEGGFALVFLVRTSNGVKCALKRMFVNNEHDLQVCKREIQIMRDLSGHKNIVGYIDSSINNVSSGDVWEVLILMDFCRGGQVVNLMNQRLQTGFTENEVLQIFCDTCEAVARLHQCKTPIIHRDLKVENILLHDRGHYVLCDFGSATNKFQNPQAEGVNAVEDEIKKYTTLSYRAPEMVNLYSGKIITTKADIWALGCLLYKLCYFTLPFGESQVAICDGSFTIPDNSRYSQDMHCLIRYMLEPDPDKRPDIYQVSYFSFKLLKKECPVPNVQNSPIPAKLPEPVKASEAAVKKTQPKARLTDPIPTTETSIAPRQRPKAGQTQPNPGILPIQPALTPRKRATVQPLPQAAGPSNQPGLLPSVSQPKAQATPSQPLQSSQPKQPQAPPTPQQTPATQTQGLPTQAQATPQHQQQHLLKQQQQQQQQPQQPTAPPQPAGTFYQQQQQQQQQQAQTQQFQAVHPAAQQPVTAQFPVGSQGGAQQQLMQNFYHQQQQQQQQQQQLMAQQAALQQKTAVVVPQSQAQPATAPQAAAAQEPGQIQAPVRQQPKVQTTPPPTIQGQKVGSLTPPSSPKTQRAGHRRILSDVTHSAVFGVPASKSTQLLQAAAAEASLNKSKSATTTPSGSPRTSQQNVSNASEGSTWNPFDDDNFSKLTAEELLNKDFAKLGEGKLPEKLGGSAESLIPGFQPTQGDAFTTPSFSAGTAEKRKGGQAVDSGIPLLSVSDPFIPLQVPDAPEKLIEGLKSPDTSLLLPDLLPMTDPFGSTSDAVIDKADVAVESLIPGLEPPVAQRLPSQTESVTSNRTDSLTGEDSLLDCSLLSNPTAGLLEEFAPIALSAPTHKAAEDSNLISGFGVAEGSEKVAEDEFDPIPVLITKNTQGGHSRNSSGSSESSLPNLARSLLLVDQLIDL
Rho-associated protein kinase 2, sequence (O75116 whole entry): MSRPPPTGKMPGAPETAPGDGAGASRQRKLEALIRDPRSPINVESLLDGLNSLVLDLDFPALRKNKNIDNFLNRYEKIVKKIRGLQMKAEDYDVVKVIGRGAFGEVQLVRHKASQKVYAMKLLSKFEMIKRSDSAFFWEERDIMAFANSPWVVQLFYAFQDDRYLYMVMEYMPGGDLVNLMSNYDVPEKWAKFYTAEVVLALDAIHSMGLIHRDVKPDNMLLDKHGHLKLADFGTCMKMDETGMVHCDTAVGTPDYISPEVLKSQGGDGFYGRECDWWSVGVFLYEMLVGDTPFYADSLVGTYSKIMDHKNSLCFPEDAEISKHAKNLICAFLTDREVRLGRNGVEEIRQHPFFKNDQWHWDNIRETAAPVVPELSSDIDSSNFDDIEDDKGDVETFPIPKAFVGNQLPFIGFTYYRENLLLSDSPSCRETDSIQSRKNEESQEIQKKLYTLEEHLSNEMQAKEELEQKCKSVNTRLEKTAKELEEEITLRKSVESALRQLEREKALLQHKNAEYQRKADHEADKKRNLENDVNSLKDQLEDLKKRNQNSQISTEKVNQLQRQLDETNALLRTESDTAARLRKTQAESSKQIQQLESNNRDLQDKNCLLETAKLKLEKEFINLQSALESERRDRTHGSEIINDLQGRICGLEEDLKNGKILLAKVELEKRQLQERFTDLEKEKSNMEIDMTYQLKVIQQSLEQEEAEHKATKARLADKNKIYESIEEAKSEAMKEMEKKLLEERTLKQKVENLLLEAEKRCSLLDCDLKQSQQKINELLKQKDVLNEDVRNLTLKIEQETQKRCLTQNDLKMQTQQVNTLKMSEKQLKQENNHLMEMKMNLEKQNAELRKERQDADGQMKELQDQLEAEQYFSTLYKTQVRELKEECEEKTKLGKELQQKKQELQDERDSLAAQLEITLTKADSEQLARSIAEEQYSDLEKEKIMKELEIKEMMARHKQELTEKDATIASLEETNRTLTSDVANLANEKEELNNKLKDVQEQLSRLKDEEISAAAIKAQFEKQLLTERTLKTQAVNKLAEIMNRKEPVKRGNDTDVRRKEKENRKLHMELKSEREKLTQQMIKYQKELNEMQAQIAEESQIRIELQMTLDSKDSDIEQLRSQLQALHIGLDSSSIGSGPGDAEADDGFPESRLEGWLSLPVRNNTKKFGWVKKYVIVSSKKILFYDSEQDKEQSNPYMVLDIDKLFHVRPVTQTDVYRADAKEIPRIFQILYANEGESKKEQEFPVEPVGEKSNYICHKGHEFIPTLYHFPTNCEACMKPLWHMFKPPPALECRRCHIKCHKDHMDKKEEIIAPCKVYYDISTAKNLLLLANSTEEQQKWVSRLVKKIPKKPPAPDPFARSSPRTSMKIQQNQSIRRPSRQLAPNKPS
Dual specificity protein kinase CLK4, sequence (Q9HAZ1 whole entry): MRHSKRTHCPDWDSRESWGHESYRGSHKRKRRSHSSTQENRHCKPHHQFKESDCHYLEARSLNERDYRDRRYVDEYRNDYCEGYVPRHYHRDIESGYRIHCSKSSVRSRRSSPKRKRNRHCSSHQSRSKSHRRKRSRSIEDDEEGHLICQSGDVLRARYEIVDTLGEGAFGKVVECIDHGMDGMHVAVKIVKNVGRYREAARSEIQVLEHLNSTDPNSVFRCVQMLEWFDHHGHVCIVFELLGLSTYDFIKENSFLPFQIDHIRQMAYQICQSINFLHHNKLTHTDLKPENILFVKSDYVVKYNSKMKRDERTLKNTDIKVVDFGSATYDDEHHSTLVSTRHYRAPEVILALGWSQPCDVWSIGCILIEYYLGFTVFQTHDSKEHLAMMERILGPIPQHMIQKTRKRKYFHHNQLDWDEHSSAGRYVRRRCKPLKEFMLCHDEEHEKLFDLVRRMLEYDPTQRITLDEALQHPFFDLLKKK
T3 sequence (Q02750 whole entry): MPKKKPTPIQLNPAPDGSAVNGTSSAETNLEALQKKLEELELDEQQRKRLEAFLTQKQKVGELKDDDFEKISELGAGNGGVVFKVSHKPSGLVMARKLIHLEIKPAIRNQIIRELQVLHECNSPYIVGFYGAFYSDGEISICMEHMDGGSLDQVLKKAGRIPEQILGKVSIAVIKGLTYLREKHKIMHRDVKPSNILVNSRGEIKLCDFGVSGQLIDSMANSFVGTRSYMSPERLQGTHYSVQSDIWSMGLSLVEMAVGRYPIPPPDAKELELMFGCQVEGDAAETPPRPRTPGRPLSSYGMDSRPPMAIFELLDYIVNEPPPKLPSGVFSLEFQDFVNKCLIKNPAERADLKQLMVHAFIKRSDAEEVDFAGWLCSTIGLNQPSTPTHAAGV

IC50 [1]	Ki [2]	remaining at 10 min, 0.5 µM [3]	remaining at 10 min, 0.5 µM [4]	remaining at 10 min, 0.5 µM [5]	IC50 (Cytochrome P450 3A4)	IC50 [7]	IC50 [9]	IC50 [11]	Compound	Activity [10]	further results
1 nM	0.15 nM	95%	80%	86%	2200 nM	1100 nM	590 nM	–	COC(=O)Nc1cc(-c2cnc(OC[C@@](C)(N)CC(C)C)c(C#N)c2)ccn1	95%	IC50 [6]: 900 nM; IC50 [8]: 1700 nM
0.4 nM	0.11 nM	90%	73%	65%	> 20000 nM	1100 nM	740 nM	4.2 nM	COC(=O)Nc1cc(-c2cnc(OC[C@@](C)(N)CC(C)C)c(Cl)c2)ccn1	87%	IC50 [12]: 6 nM; IC50 [13]: 1300 nM; IC50 [14]: 1800 nM; IC50 [15]: 1860 nM
1.7 nM	1.4 nM	100%	100%	99%	13000 nM	780 nM	–	12 nM	COC(=O)Nc1cc(-c2cc(C)c(OC[C@@](C)(N)CC(C)C)cn2)ccn1	38%	IC50 [16]: 1800 nM; IC50 [17]: 1300 nM; IC50 [18]: 600 nM; IC50 [19]: 60 nM; IC50 [20]: 690 nM
